From US20250092054A1, “FUSED PYRIDINES FOR CONTROLLING INVERTEBRATE PESTS” (FMC Corporation, priority 2021, published 2025)
Read-outs that look alike come from different tables or passages of the source.

How the values were obtained:
Assay type in all cases: in vivo
[1] = tested on: potato leafhopper (Empoascafabae (Harris)); assay: Test D: control of potato leafhopper through contact and/or systemic means; conditions: 144 h
Protocol: (§1) Test compounds were formulated using a solution containing 10% acetone, 90% water and 300 ppm Activator 90® non-ionic surfactant (Loveland Products, Loveland, Colorado, USA). The formulated compounds were applied in 1 mL of liquid through an atomizer nozzle positioned 1.27 cm (0.5 inches) above the top of each test unit. Test compounds were sprayed at the rates indicated, and each test was replicated three times.
For evaluating control of potato leafhopper (Empoascafabae (Harris)) through contact and/or systemic means, the test unit consisted of a small open container with a 5-6-day-old Soleil bean plant (primary leaves emerged) inside. White sand was added to the top of the soil, and one of the primary leaves was excised prior to application of the test compound.
Test compounds were formulated and sprayed at 50 and 10 ppm. After spraying of the formulated test compound, the test units were allowed to dry for 1 hour before they were post-infested with 5 potato leafhoppers (18-to-21-day-old adults). A black, screened cap was placed on the top of the test unit, and the test units were held for 6 days in a growth chamber at 20° C. and 70% relative humidity. Each test unit was then visually assessed for insect mortality.

[2] = tested on: cotton melon aphid (Aphis gossypii (Glover)); assay: Test F: control of cotton melon aphid through contact and/or systemic means; conditions: 144 h
Protocol: as §1
For evaluating control of cotton melon aphid (Aphis gossypii (Glover)) through contact and/or systemic means, the test unit consisted of a small open container with a 5-day-old okra plant inside. This was pre-infested with 30-40 insects on a piece of leaf according to the cut-leaf method, and the soil of the test unit was covered with a layer of sand.
Test compounds were formulated and sprayed at 50 and 10 ppm. After spraying, the test units were maintained in a growth chamber for 6 days at 19° C. and 70% relative humidity. Each test unit was then visually assessed for insect mortality.

[3] = tested on: green peach aphid (Myzus persicae (Sulzer)); assay: Test E: control of green peach aphid through contact and/or systemic means; conditions: 144 h
Protocol: as §1
For evaluating control of green peach aphid (Myzus persicae (Sulzer)) through contact and/or systemic means, the test unit consisted of a small open container with a 12-15-day-old radish plant inside. This was pre-infested by placing on a leaf of the test plant 30-40 aphids on a piece of leaf excised from a culture plant (cut-leaf method). The aphids moved onto the test plant as the leaf piece desiccated. After pre-infestation, the soil of the test unit was covered with a layer of sand.
Test compounds were formulated and sprayed at 50 and 10 ppm. After spraying of the formulated test compound, each test unit was allowed to dry for 1 hour and then a black, screened cap was placed on top. The test units were held for 6 days in a growth chamber at 19-21° C. and 50-70% relative humidity. Each test unit was then visually assessed for insect mortality.

[4] = tested on: corn planthopper (Peregrinus maidis (Ashmead)); assay: Test C: control of corn planthopper through contact and/or systemic means; conditions: 144 h, corn plant post-infested with nymphs, assessed after 6 days; for mortality at 50 ppm: sprayed at 50 ppm
Protocol: as §1
For evaluating control of corn planthopper (Peregrinus maidis (Ashmead)) through contact and/or systemic means, the test unit consisted of a small open container with a 3-4-day-old corn (maize) plant inside. White sand was added to the top of the soil prior to application of the test compound.
Test compounds were formulated and sprayed at 50 and 10 ppm. After spraying of the formulated test compound, the test units were allowed to dry for 1 h before they were post-infested with ˜15-20 nymphs (18-to-21-day-old). A black, screened cap was placed on the top of each test unit, and the test units were held for 6 days in a growth chamber at 22-24° C. and 50-70% relative humidity. Each test unit was then visually assessed for insect mortality.

[5] = sprayed at 10 ppm, Soleil bean plant post-infested with adults, assessed after 6 days, read-out: mortality
[6] = sprayed at 50 ppm, Soleil bean plant post-infested with adults, assessed after 6 days, read-out: mortality
[7] = sprayed at 50 ppm, pre-infested okra plant, assessed after 6 days, read-out: mortality
[8] = sprayed at 50 ppm, pre-infested radish plant, assessed after 6 days, read-out: mortality

O=C(NC1CC1)c1cnc(C2=NOC(c3cc(Cl)cc(Cl)c3)(C(F)(F)F)C2)c2sccc12 (stereo not shown) [Compound 11, N-cyclopropyl-7-[5-(3,5-dichlorophenyl)-4,5-dihydro-5-(trifluoromethyl)-3-isoxazolyl]thieno[2,3-c]pyridine-4-carboxamide]
≥ 80%: mortality at 10 ppm [1] | mortality at 50 ppm [1]

CNC(=O)[C@@H](C)NC(=O)c1ncc(C2=NOC(c3cc(Cl)c(F)c(Cl)c3)(C(F)(F)F)C2)c2c1CCC2 (stereo partly drawn) [Compound 30, 4-[5-(3,5-dichloro-4-fluorophenyl)-4,5-dihydro-5-(trifluoromethyl)-3-isoxazolyl]-6,7-dihydro-N-[(1R)-1-methyl-2-(methylamino)-2-oxoethyl]-5H-cyclopenta[c]pyridine-1-carboxamide]
≥ 80%: mortality at 50 ppm [2]

CNC(=O)[C@@H](C)NC(=O)c1cnc(C2=NOC(c3cc(Cl)cc(Cl)c3)(C(F)(F)F)C2)c2sccc12 (stereo partly drawn) [Compound 7, 7-[5-(3,5-dichlorophenyl)-4,5-dihydro-5-(trifluoromethyl)-3-isoxazolyl]-N-[(1R)-1-methyl-2-(methylamino)-2-oxo-ethyl]thieno[2,3-c]pyridine-4-carboxamide]
≥ 80%: mortality at 10 ppm [1] | mortality at 50 ppm [1] | mortality at 50 ppm [2] | mortality at 50 ppm ([3]; in Raphanus sativus)

O=C(NC1CSC1)c1cnc(C2=NOC(c3cc(Cl)cc(Cl)c3)(C(F)(F)F)C2)c2ccsc12 (stereo not shown) [Compound 27, 4-[5-(3,5-dichlorophenyl)-4,5-dihydro-5-(trifluoromethyl)-3-isoxazolyl]-N-3-thietanylthieno[3,2-c]pyridine-7-carboxamide]
≥ 80%: mortality at 50 ppm [1]

CCC(=O)NCc1ncc(C2=NOC(c3cccc(C(F)(F)F)c3)(C(F)(F)F)C2)c2ccoc12 (stereo not shown) [Compound 23, N-[[4-[4,5-dihydro-5-(trifluoromethyl)-5-[3-(trifluoromethyl)phenyl]-3-isoxazolyl]furo[2,3-c]pyridin-7-yl]methyl]propanamid]
≥ 80%: mortality at 10 ppm [1, 5] | mortality at 50 ppm [1, 6] | mortality at 10 ppm ([2]; sprayed at 10 ppm, pre-infested okra plant, assessed after 6 days) | mortality at 50 ppm [2, 7] | mortality at 10 ppm ([4]; sprayed at 10 ppm) | mortality at 50 ppm [4] | mortality at 10 ppm ([3]; sprayed at 10 ppm, pre-infested radish plant, assessed after 6 days) | mortality at 50 ppm [3, 8]

O=C(NC1CC1)c1ncc(C2=NOC(c3cc(Cl)c(F)c(Cl)c3)(C(F)(F)F)C2)c2ccoc12 (stereo not shown) [Compound 13, N-cyclopropyl-4-[5-(3,5-dichloro-4-fluorophenyl)-4,5-dihydro-5-(trifluoro-methyl)-3-isoxazolyl]furo[2,3-c]pyridine-7-carboxamide]
≥ 80%: mortality at 10 ppm [1] | mortality at 50 ppm [1] | mortality at 50 ppm [2] | mortality at 50 ppm ([3]; in Raphanus sativus)

CC(=O)NCc1ncc(C2=NOC(c3cccc(C(F)(F)F)c3)(C(F)(F)F)C2)c2ccoc12 (stereo not shown) [Compound 1, N-[[4-[4,5-dihydro-5-(trifluoromethyl)-5-[3-(trifluoromethyl)phenyl]-3-isoxazolyl]furo[2,3-c]pyridin-7-yl]methyl]acetamide]
≥ 80%: mortality at 10 ppm [1, 5] | mortality at 50 ppm [1, 6] | mortality at 50 ppm [2, 7] | mortality at 50 ppm [4] | mortality at 50 ppm [3, 8]

O=C(NCC1CC1)c1ncc(C2=NOC(c3cc(Cl)c(F)c(Cl)c3)(C(F)(F)F)C2)c2ccoc12 (stereo not shown) [Compound 14, N-(cyclopropylmethyl)-4-[5-(3,5-dichloro-4-fluorophenyl)-4,5-dihydro-5-(trifluoromethyl)-3-isoxazolyl]furo[2,3-c]pyridine-7-carboxamide]
≥ 80%: mortality at 10 ppm [1] | mortality at 50 ppm [1]

O=C(NC1CC1)c1cnc(C2=NOC(c3cc(Cl)cc(Cl)c3)(C(F)(F)F)C2)c2ccsc12 (stereo not shown) [Compound 26, N-cyclopropyl-4-[5-(3,5-dichlorophenyl)-4,5-dihydro-5-(trifluoromethyl)-3-isoxazolyl]thieno[3,2-c]pyridine-7-carboxamide]
≥ 80%: mortality at 50 ppm [1]
